{
  "source": "patent US20050154058A1",
  "about": "“Method of preparing hydroxytyrosol esters, esters thus obtained and use of same” (priority 2002, published 2005)",
  "origin": "cited, not measured here",
  "key": {"[1]": {"conditions": "state of the art, compared in words with free hydroxytyrosol or usual additives"}, "[2]": {"conditions": "state of the art"}},
  "data": [
    {"smiles": "CC(=O)OCCc1ccc(O)c(O)c1", "note": "[Example 1, 2-(3,4-dihydroxyphenyl)ethyl Acetate]", "values": [
      {"measurement": "antioxidant activity / protective capacity against oxidation", "setting": "[1]", "result": "the same activity towards oxidation as does free hydroxytyrosol itself"},
      {"measurement": "solubility in lipophilic medium", "setting": "[2]", "result": "liposoluble"}
    ]},
    {"smiles": "OCCc1ccc(O)c(O)c1", "note": "[Hydroxytyrosol, 2-(3,4-dihydroxyphenyl)ethanol]", "values": [
      {"measurement": "antioxidant activity / protective capacity against oxidation", "setting": "[1]", "result": "much greater than the antioxidant additives normally used"},
      {"measurement": "solubility in lipophilic medium", "setting": "[2]", "result": "virtually insoluble in lipophilic medium"}
    ]}
  ]
}
